In patent US12691199B2, “Mussel-inspired photoreactive instant glue for environmental and biomedical applications” (KING ABDULLAH UNIVERSITY OF SCIENCE AND TECHNOLOGY, priority 2022, dated 2026):

Assay: Photocuring / inverted vial test of aqueous adhesive solution
Type: physicochemical
Conditions: aqueous solution with LAP 50.9 mM, 395 nm light
Method: The minimum concentration of the monomer and the crosslinker that leads to a solid material after curing is 892.8 mM and 161.8 mM, respectively. The high hydrophilicity of both compounds allows the formation of a highly concentrated aqueous solution. After the photoinitiator (LAP) addition and the application of 395 nm wavelength light, radicals are formed, and a polymeric crosslinked network is created according to the reaction (FIG. 9). The solution solidifies after 10 sec of exposure to the UV light (FIGS. 10A-B). FIG. 10A has a vial (892.8 mM KDOPA-MA and 161.8 mM (KDOPA)2-DMA) and FIG. 10B (297.6 mM KDOPA-MA and 53.9 mM (KDOPA)2-DMA). In both cases, the LAP concentration was constant (50.9 mM) and the UV light was applied for 10 sec. When the concentration of the compounds decreases, the solution remains liquid and becomes cloudier after curing. […] FIG. 11A illustrates 15% crosslinker molar ratio. FIG. 11B illustrates 45% crosslinker molar ratio.
The adhesive was prepared using the formulation of Table 1. An aqueous solution of LAP photoinitiator (15 mg/ml), KDOPA-MA (350 mg/ml) and (KDOPA)2-DMA (145 mg/ml) was prepared by mixing and vortexing for 10 sec. Throughout the text this formulation mentioned KDopa glue. When KDOPA-MA was replaced with KY-MA (the (KDOPA)2-DMA crosslinker remains the same) disclosed embodiments have the KY glue. […]

Row | Substance | minimum concentration that leads to a solid material after curing [mM]
1 | Lys-DOPA dimethacrylate [(KDOPA)2-DMA] | 161.8
2 | Lys-DOPA methacrylate [KDOPA-MA] | 892.8
